{"source": "patent US20200392108A1", "about": "“ANTIBODY-DRUG CONJUGATES AND RELATED COMPOUNDS, COMPOSITIONS AND METHODS” (Magenta Therapeutics, Inc., priority 2011, published 2020)", "test_system": "BT474 (HER2+) cell line", "assay": "Standard cellular cytotoxicity assay, BT474", "assay_type": "cell-based, human", "source_text": "The cytotoxicity of tubulysins T1 and T2 was compared to the cytotoxicity of MMAF using the BT474 (HER2+) cell line in a standard cellular cytotoxicity assay.", "note": "pIC50: −log10 of the molar value. Like-named read-outs stand apart in the source and are kept apart here. Square brackets hold non-standard residues; d marks the D form. Peptide text beside a SMILES is read from it. Dolaproine = CO[C@@H]([C@@H]1CCCN1)[C@@H](C)C(=O)O; Dil = CC[C@H](C)[C@H](NC)[C@@H](CC(=O)O)OC; NMeV = CN[C@H](C(=O)O)C(C)C"}
{"smiles": "CC[C@H](C)[C@@H]([C@@H](CC(=O)N1CCC[C@H]1[C@H](OC)[C@@H](C)C(=O)N[C@@H](Cc1ccccc1)C(=O)O)OC)N(C)C(=O)[C@@H](NC(=O)[C@@H](NC)C(C)C)C(C)C", "note": "[MMAF, monomethylauristatin F] (H-[NMeV]V[Dil][Dolaproine]F-OH)", "values": [{"measurement": "pIC50", "value": 7.03}]}
{"smiles": "CC[C@H](C)[C@H](NC(=O)[C@H]1CCCCN1C)C(=O)N(C)[C@H](C[C@@H](OC(C)=O)c1nc(C(=O)O)cs1)C(C)C", "note": "[T1]", "values": [{"measurement": "pIC50", "setting": "Homo sapiens, BT-474", "value": 7.96}]}
{"smiles": "CC[C@H](C)[C@H](NC(=O)[C@H]1CCCCN1C)C(=O)N(C)[C@H](C[C@@H](OC(C)=O)c1nc(C(=O)N[C@@H](Cc2ccccc2)C[C@H](C)C(=O)O)cs1)C(C)C", "note": "[T2]", "values": [{"measurement": "pIC50", "setting": "Homo sapiens, BT-474", "value": "> 10.00"}]}
